# According to paper PMC6402572 (ChemMedChem, 2018):
# Columns and labels:
# HCT116 cells = experiment: Soft agar anchorage-independent growth assay, HCT116 cells; type: cell-based; conditions: read-out: GI50, anchorage-independent growth of HCT116 cells, Control, without SIRT2 overexpression
# [1] = tested on: HCT116 cells with SIRT2 overexpression; conditions: read-out: GI50, anchorage-independent growth of HCT116 cells, SIRT2 expression, soft agar
# SIRT6 = SIRT6 (Homo sapiens, UniProt Q8N6T7); experiment: HPLC-based SIRT6 demyristoylation assay; type: biochemical; conditions: with pre-incubation
# Chain of SIRT6 (Q8N6T7 whole entry, species assumed): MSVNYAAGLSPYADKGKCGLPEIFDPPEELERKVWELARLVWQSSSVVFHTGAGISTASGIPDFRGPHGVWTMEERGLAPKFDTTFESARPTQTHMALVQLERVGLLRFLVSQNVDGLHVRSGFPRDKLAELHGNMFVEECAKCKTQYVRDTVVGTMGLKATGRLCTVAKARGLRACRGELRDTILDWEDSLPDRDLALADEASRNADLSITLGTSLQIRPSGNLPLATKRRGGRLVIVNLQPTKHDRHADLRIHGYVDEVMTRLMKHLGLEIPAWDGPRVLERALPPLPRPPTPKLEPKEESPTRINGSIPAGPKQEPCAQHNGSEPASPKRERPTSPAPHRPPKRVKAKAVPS
# SIRT3 = biological target: T1, SIRT3 (Homo sapiens, UniProt Q9NTG7); experiment: HPLC-based SIRT3 deacetylation assay; type: biochemical; conditions: with pre-incubation
# T1 sequence (Q9NTG7 1-399): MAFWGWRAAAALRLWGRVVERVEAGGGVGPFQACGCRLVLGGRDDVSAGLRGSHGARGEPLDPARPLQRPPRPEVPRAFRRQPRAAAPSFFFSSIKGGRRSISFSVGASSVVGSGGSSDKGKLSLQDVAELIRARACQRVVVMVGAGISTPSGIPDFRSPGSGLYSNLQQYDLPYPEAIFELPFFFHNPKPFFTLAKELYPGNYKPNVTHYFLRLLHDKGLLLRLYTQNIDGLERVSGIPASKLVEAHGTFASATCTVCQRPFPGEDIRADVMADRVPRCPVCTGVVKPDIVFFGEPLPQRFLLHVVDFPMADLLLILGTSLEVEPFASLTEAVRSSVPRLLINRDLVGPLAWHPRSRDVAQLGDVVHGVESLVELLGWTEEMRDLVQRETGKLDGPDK
# HME-1 cells = experiment: Cytotoxicity; type: cell-based; conditions: read-out: GI50 in HME-1 cells; normal mammary epithelial cell line
# MCF10A cells = experiment: Cytotoxicity; type: cell-based; conditions: read-out: GI50 in MCF10A cells; normal mammary epithelial cell line
SMILES,GI50 (HCT116 cells) [µM],GI50 [1] [µM],Inhibition of SIRT6 (SIRT6),Inhibition of SIRT3 (SIRT3),GI50 (HME-1 cells) [µM],GI50 (MCF10A cells) [µM]
Cc1cc(C)nc(SCC(=O)Nc2ncc(Cc3cccc4ccccc34)s2)n1 [SirReal2],55.8,58.1,,,,
CCCCCCCCCCCCCC(=S)NCCCCC(NC(=O)OCc1ccccc1)C(=O)Nc1ccccc1 (centres unmarked) [TM],13.5,24.2,essentially did not inhibit,essentially did not inhibit,> 50,> 50
N#C/C(=C\c1ccc(-c2cc(Cl)ccc2Cl)o1)C(=O)Nc1cccc2ncccc12 [AGK2],24.1,27.6,,,,
CN(C)CCCCC(=O)Nc1ccc(NC(=S)NC(=O)c2ccc(C(C)(C)C)cc2)cc1 [Tenovin-6],2.1,,,,,
